Measured values taken from patent US20030203908A1, “Dihydrofolate reductase inhibitors” (priority 2000, published 2003).
In brackets after ≈: the same amount, converted by molar mass. Like-named read-outs stand apart in the source and are kept apart here.

How the values were obtained:
[1] = target: T1, A16V.S108T mutant (mut) of DHFR from Plasmodium falciparum (Plasmodium falciparum, UniProt A7UD81, A16V/S108T); assay: biochemical
T1 construct: The Dihydrofolate Reductase Domain of Plasmodium falciparum Thymidylate Synthase-Dihydrofolate Reductase; made in house
T1 sequence (A7UD81 1-231 A16V/S108T): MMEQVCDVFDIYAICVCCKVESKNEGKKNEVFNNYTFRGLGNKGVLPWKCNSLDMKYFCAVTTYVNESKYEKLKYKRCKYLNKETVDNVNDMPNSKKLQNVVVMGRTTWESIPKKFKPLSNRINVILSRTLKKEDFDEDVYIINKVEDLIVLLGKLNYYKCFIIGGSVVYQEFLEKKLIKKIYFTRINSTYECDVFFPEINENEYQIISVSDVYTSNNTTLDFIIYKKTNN
Experimental: (§2) For determination of the Ki values of a number of synthesized analogues, the assay reactions were initiated with affinity-purified enzyme (^˜0.005-0.01 U ml^−1), and the initial velocities in the presence of varying concentrations of inhibitors were analysed by non-linear least square fit using Kaleidagraph™ software.

[2] = system: A16V.S108T mutant (mut) of DHFR from Plasmodium falciparum; assay: biochemical; conditions: resistance factor
Experimental: as §2

[3] = system: wild-type (TM4/8.2) strain of P. falciparum; assay: microbe, parasite or virus in culture; type: cell-based, Plasmodium falciparum
Experimental: (§1) Mol. Biochem. Parasitol. […] Science, 1976, 193, 673-675]. In vitro antimalarial activity was determined by using [^3H]-hypoxanthine incorporation method [Desjardins, R. E.; Canfield, C. J.; Haynes, J. D.; Chulay, J. D. Quantitative assessment of antimalarial activity in vitro by a semiautomated microdilution technique. Antimicrob Agents Chemother. 1979, 16, 710-718]. The drugs were initially dissolved in DMSO and diluted with the culture media. Aliquots (25 μl) of drug solution of different concentrations was placed in 96-well plate together with 200 μl of 1.5% cell suspension of parasitized erythrocytes containing 1-2% parasitemia. Final concentration of DMSO was 0.1% where there was no effect on the parasite growth. The mixtures were incubated in a 3% CO2 incubator at 37° C. After 24 h of incubation, 25 μl (0.25 μCi) of [^3H]-hypoxanthine were added to each well. The mixtures were further incubated under the same condition for 18-24 h. DNA of parasites was harvested onto glass filter paper (Unifilter, Packard, USA). The filters were dried and liquid scintillation fluid was added for radioactivity measurement in a 6-probe liquid scintillation-counter (Packard, USA).

[4] = target: T2, wild-type (wt) DHFR from Plasmodium falciparum (Plasmodium falciparum, UniProt P13922, N108S/R59C); assay: Inhibition of wild-type pfDHFR (spectrophotometric, Ki); type: biochemical;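 note: Affinity-purified enzyme, initial reaction rates measured across a range of inhibitor concentrations, Ki obtained by nonlinear least-squares fitting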
T2 construct: The Dihydrofolate Reductase Domain of Plasmodium falciparum Thymidylate Synthase-Dihydrofolate Reductase; made in house
T2 sequence (P13922 10-228 R59C/N108S): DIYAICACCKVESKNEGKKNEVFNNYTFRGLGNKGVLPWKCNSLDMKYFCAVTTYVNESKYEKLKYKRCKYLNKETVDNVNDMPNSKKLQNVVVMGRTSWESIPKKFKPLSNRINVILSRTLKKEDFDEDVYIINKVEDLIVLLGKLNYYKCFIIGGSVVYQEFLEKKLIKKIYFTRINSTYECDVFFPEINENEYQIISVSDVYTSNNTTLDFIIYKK
Experimental: as §2

[5] = system: resistant T9/94 strain of P. falciparum (A16V.S108T pfDHFR); assay: In vitro antimalarial activity, [3H]-hypoxanthine incorporation, T9/94; type: cell-based, Plasmodium falciparum; conditions: resistant strain T9/94
Experimental: as §1

[6] = target: T3, DHFR-TS from Trypanosoma cruzi (Trypanosoma cruzi, UniProt Q27793); assay: Inhibition of T. cruzi DHFR-TS (I50-derived Ki);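 for all read-outs here: enzymes were recombinant T. cruzi DHFR-TS and human DHFR, both expressed in E. coli and purified on a methotrexate affinity column, with dihydrofolate and NADPH as substrates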; type: biochemical; conditions: for Selectivity: human Ki / T. cruzi Ki
T3 construct: pET 11c with the insertion of the complete ORF of the gene tc-dhfrts; made in house; host or cells: E. coli BL21 (DE3)
T3 sequence (Q27793 whole entry): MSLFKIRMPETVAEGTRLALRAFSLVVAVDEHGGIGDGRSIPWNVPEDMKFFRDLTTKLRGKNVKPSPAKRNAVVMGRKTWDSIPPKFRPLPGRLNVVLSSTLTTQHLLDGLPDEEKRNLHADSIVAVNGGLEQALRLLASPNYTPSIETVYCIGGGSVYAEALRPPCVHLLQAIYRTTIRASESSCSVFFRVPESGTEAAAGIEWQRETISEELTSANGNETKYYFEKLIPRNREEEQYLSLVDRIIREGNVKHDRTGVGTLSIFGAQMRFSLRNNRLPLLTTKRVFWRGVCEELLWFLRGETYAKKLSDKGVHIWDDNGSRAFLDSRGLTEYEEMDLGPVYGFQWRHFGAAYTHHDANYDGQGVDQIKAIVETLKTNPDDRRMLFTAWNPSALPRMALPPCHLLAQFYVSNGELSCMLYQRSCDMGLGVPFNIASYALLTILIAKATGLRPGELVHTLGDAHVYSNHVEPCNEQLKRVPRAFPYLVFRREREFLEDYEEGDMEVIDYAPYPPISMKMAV
Experimental: DHFR activity was measured spectrophotometrically by monitoring the decrease in absorbance at 340 mm.
(§3) Inhibition of dihydrofolate reductases by 1,2-dihydro-1,3,5 triazines was analysed with T. cruzi and human DHFR.
(§4) DHFR assays contained 30 mM dihydrofolate, 0.1 mM NADPH, 50 mM TES buffer pH 7, 75 mM 2-mercaptoethanol and specified amounts of inhibitors. The reaction was initiated by addition of 2.8 or 2.3 units of T. cruzi and human, respectively, and monitored at 340 nm.
Selective inhibition of dihydrofolate reductase by 1,2-dihydro-1,3,5-triazines was analysed with T. cruzi and human DHFR. DHFR assays contained 30 μM dihydrofolate, 0.1 mM NADPH, 50 mM TES buffer pH 7, 75 mM β-mercaptoethanol and specified amounts of inhibitors. The reaction was initiated by addition of 2.8 or 2.3 units of T. cruzi and human enzyme, respectively, and monitored at 340 nm.
KiI 50=[I]0.5/((1+[S])/Km)

human DHFR [7] = target: T4, human DHFR (Homo sapiens, UniProt P00374); assay: Inhibition of human DHFR (I50-derived Ki); type: biochemical; conditions: for inhibitory activity against human DHFR: compared with methotrexate;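 for all read-outs here: recombinant human DHFR expressed in E. coli and purified by methotrexate affinity chromatography, enzyme activity followed spectrophotometrically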
T4 construct: made in house; host or cells: E. coli M15
T4 sequence (P00374 1-187): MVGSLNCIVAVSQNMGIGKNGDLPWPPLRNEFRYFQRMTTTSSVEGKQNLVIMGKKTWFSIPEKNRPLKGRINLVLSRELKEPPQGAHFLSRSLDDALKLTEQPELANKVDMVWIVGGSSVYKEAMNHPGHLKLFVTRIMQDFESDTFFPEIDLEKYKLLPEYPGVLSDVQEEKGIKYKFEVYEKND
Experimental: (§5) Folic acid and NADPH, were purchased from Sigma. Dihydrofolate was prepared from folic acid dithionate reduction. Methotrexate (MTX) was from Lederle Laboratories. MTX sepharose CL-6B was prepared according to the protocol described by Dann. et al. IPTG came from Boehringer Manheim. The expression system used for recombinant human DHFR production, which includes the plasmid PB-E1/RB SII, SphI-HDHFR expressed in E. coli M15, was supplied by Santi, D. V (Department of Biochemistry and Biophysics and Department of Pharmaceutical Chemistry, University of California). Recombinant T. Cruzi DHFR-TS was produced using the system pET 11c with the insertion of the complete ORF of the gene tc-dhfrts. The resulting plasmid was called pET DT.
(§6) Human and T.cruzi DHFR were produced using inducible expression systems. For human DHFR, fresh overnight cultures of E. coli M15, transformed with the plasmid, pB-E1/RB SII, SphI-HDHFR, were grown in LB and 0.1 mg/ml ampicillin medium at 28° C. For T.cruzi DHFR-TS, cultures of E. coli, BL21 (DE3) transformed with the plasmid pETDT system were grown at 37° C. The same purification protocol was used for both systems. When OD600 was at 0.8, cells pellets were collected by centrifugation, suspended in 50 ml of LB medium, containing 0.1 mg/ml of ampicillin. 10 ml of this preinocule was added to 2 litres of LB medium. Cultures were shaken at 28° C. or 37° C. (for human and T. cruzi DHFR respectively) and induction with IPTG ImM was performed when OD600 reached 0.8. After IPTG induction, cells were grown overnight in a shaker at 28° C. or 5 hours at 28° C. or 37° C. (for human and T. cruzi DHFR respectively) and then harvested by centrifugation.
(§7) Cell pellets were suspended in sonication buffer (2× TES DHFR:TES 100 mM, 2-mercaptoethanol 150 mM, EDTA 2 mM pH=7) containing protease inhibitors.
(§8) Crude extract was circulated through the MTX-Sepharose column at 4° C. at a flow rate of 0.2 ml/min until the protein was bound to the resin. The column was washed with an excess of buffer B (KH2PO410 mM pH 7, KC1 1M). Protein was eluted at 0.2 min/ml with an elution buffer (100 mM TES, 10 mM DTT, 2 mM EDTA, DHF 8.5 mM), the elution profile was collected in 1 ml fractions using a Pharmacia LKB Frac 200 collector. Finally, the protein was desalted using molecular size exclusion chromatography in a Pharmacia G-25 column. Fractions containing DHFR activity were pooled and concentrated by ultrafiltration using centripreps Amicon.
(§9) The purity of the protein preparation was assessed by detection of a single band of the correct molecular weight stained with coomasie blue following a 12% SDS-PAGE. Protein concentration was determined by the method of Bradford using a BSA as a standard. DHFR activity was measured spectrophotometrically by monitoring the decrease in absorbance at 340 mm. […] One unit of enzyme, is defined as the amount of enzyme which produces 1 nmol of product per min using ε of 12300M^−1 at 340 nm.
as §3, §4
(§10) Selective inhibition of dihydrofolate reductase by 1,2-dihydro-1,3,5-triazines was analysed with T. cruzi and human DHFR. DHFR assays contained 30 μM dihydrofolate, 0.1 mM NADPH, 50 mM TES buffer pH 7, 75 mM β-mercaptoethanol and specified amounts of inhibitors. The reaction was initiated by addition of 2.8 or 2.3 units of T. cruzi and human enzyme, respectively, and monitored at 340 nm. […] KiI 50=[I]0.5/((1+[S])/Km)

human DHFR [8] = assay: Inhibition of human DHFR (I50-derived Ki); type: biochemical;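 note: recombinant human DHFR expressed in E. coli and purified by methotrexate affinity chromatography, enzyme activity followed spectrophotometrically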
Experimental: as §5, §6, §7, §8, §9, §3, §4, §10

Plasmodium berghei = assay: In vivo activity against Plasmodium berghei in mice; conditions: P. berghei
Experimental: These analogues were tested in vivo in a mice against Plasmodium berghei.

[9] = system: P. falciparum FCR3 (resistant strain containing the A16V.S108T DHFR mutant); assay: In vitro inhibition of P. falciparum FCR3; type: cell-based, Plasmodium falciparum; conditions: for IC50: Plasmodium falciparum, read-out: Pf-FCR3 ED50
[10] = system: P. falciparum 3D7 (wild-type strain); assay: In vitro inhibition of P. falciparum 3D7; type: cell-based, Plasmodium falciparum; conditions: 3D7 strain; for IC50: Plasmodium falciparum, read-out: Pf-3D7 ED50
[11] = A16V.S108T mutant pfDHFR, read-out: Ki(mut)
[12] = Plasmodium falciparum, wild-type strain TM4/8.2
[13] = T. cruzi DHFR-TS, read-out: T. cruzi Ki (I50)

Structure (SMILES)	Ki [1, 11]	Ki(mut)/Ki(wt) [2]	IC50 ([3]; wild-type strain TM4/8.2)	Ki ([4]; read-out: Ki(wt))	IC50 [5]	Ki [1]	IC50 [3, 12]	Ki ([4]; Ki(wt) nM)	other results
CCCCOc1ccc(C2N=C(N)N=C(N)N2OCCCOc2cc(Cl)c(Cl)cc2Cl)cc1 (centres unmarked) [1-[3′-(2,4,5-trichlorophenoxy)-n-propyloxy]-2-p-n-butyloxyphenyl-4,6-diamino-1,2-dihydro-1,3,5-triazine]	8.2 ± 0.8 nM	2.6	1490 nM	3.2 ± 0.4 nM	41 nM				
CCCOc1ccc(C2N=C(N)N=C(N)N2OCCCOc2cc(Cl)c(Cl)cc2Cl)cc1 (centres unmarked) [1-[3′-(2,4,5-trichlorophenoxy)-n-propyloxy]-2-p-n-propyloxyphenyl-4,6-diamino-1,2-dihydro-1,3,5-triazine]	6.1 ± 0.7 nM	3.6	948 nM	1.7 ± 0.3 nM	29 nM				
NC1=NC(c2cccc(Oc3ccccc3)c2)N(c2ccc(OCc3ccccc3)cc2)C(N)=N1 (centres unmarked) [1-p-Benzyloxyphenyl-2-m-phenoxyphenyl-4,6-diamino-1,2-dihydro-1,3,5-triazine]		5				4.5 ± 0.6 nM	255 nM	0.9 ± 0.2 nM	Ki [6]: 3 nM; Selectivity [6]: 3.3; Ki (human DHFR [7]; Human Ki (I50)(nM), human DHFR): 10 nM; inhibitory activity against human DHFR (human DHFR [7]): comparable to that of methotrexate; Ki (human)/Ki (P. falc. mut) (human DHFR [8]): 2.2; Ki (human)/Ki (P. falc. wt) (human DHFR [8]): 11; Ki (human)/Ki (T. cruzi) (human DHFR [8]): 3.33; melting point: 208 to 210 °C
NC1=NC(c2ccc(Cl)cc2)N(c2ccc(Cl)cc2)C(N)=N1 (centres unmarked) [(Ia) R2=p-chlorophenyl]	105 ± 17 nM	14.0	499 nM	7.5 ± 0.9 nM	386 nM				Ki [6, 13]: 270 nM; Selectivity [6]: 11; Ki (human DHFR [7]; human DHFR, read-out: Human Ki (I50)): 2960 nM; Ki (human)/Ki (P. falc. mut) (human DHFR [8]): 28; Ki (human)/Ki (P. falc. wt) (human DHFR [8]): 395; Ki (human)/Ki (T. cruzi) (human DHFR [8]): 11.0
NC1=NC(c2cccc(Oc3ccc(Cl)c(Cl)c3)c2)N(c2cccc(Cl)c2)C(N)=N1 (centres unmarked) [(Ib) R2=3-(3,4-dichlorophenoxy)phenyl]		4.1				9.1 ± 0.7 nM	3900 nM	2.2 ± 0.2 nM	Mean % infected RBC (Plasmodium berghei; 25 mg/kg daily x4): 13.0%
NC1=NC(c2cccc(Oc3ccc(Cl)cc3)c2)N(c2cccc(Cl)c2)C(N)=N1 (centres unmarked) [(Ib) R2=3-(4-chlorophenoxy)phenyl]		2.7				3.5 ± 0.5 nM	3950 nM	1.3 nM	Mean % infected RBC (Plasmodium berghei; 25 mg/kg daily x4): 5.0%; IC50 ([9]; in vitro, FCR3 strain): 0.078 µg/mL (≈ 0.183 µM); IC50 [10]: 0.36 µg/mL (≈ 0.844 µM)
COc1ccc(Oc2cccc(C3N=C(N)N=C(N)N3c3cccc(Cl)c3)c2)cc1 (centres unmarked) [(Ib) R2=3-(4-methoxyphenoxy)phenyl]		1.1				2.5 ± 0.3 nM	4120 nM	2.3 ± 0.1 nM	Mean % infected RBC (Plasmodium berghei; 25 mg/kg daily x4): 1.94%
NC1=NC(c2cccc(Oc3ccccc3)c2)N(c2cccc(Cl)c2)C(N)=N1 (centres unmarked) [(Ib) R2=3-phenoxyphenyl, 1-m-chlorophenyl-2-m-phenoxyphenyl-4,6-diamino-1,2-dihydro-1,3,5-triazine]		1.9				1.9 nM	2300 nM	1 ± 0.2 nM	Ki [6]: 4 nM; Selectivity [6]: 0.5; Mean % infected RBC (Plasmodium berghei; 25 mg/kg daily x4): 7.05%; Ki (human DHFR [7]; Human Ki (I50)(nM), human DHFR): 2 nM; inhibitory activity against human DHFR (human DHFR [7]): comparable to that of methotrexate; Ki (human)/Ki (P. falc. mut) (human DHFR [8]): 0.8; Ki (human)/Ki (P. falc. wt) (human DHFR [8]): 1.8; Ki (human)/Ki (T. cruzi) (human DHFR [8]): 0.5; ED50 against the resistant Pf FCR-3 strain in vitro [9]: 0.8 nM; IC50 ([9]; in vitro, FCR3 strain): 0.0008 µg/mL (≈ 0.00204 µM); IC50 [10]: 0.22 µg/mL (≈ 0.561 µM)
NC1=NC(c2ccc(Oc3ccccc3)cc2)N(c2cccc(Cl)c2)C(N)=N1 (centres unmarked) [(Ib) R2=4-phenoxyphenyl]		3.9				2.7 ± 0.4 nM	647 nM	0.7 nM	Mean % infected RBC (Plasmodium berghei; 25 mg/kg, schedule b): 11.42%; IC50 ([9]; in vitro, FCR3 strain): 0.004 µg/mL (≈ 0.0102 µM)
NC1=NC(c2cccc(OCc3ccccc3)c2)N(c2cccc(COc3cc(Cl)c(Cl)cc3Cl)c2)C(N)=N1 (centres unmarked) [(Id1) R2=3-benzyloxyphenyl]	11.7 ± 3.2 nM	1.1	14000 nM	10.3 ± 2.6 nM	1730 nM				Ki [6, 13]: 30 nM; Selectivity [6]: 0.73; Ki (human DHFR [7]; read-out: Human Ki (I50)): 22 nM; Ki (human)/Ki (P. falc. mut) (human DHFR [8]): 1.9; Ki (human)/Ki (P. falc. wt) (human DHFR [8]): 2.1; Ki (human)/Ki (T. cruzi) (human DHFR [8]): 0.7
NC1=NC(c2cccc(Oc3ccc(Cl)cc3)c2)N(c2cccc(/C=C/c3ccc(Cl)cc3Cl)c2)C(N)=N1 (centres unmarked) [(Id2) R2=3-(4-chlorophenoxy)phenyl]	210 ± 18 nM	0.9	> 10000 nM	219 ± 11 nM	> 10000 nM				
NC1=NC(c2cccc(Oc3ccccc3)c2)N(c2cccc(/C=C/c3ccc(Cl)cc3Cl)c2)C(N)=N1 (centres unmarked) [(Id2) R2=3-phenoxyphenyl]	10.8 ± 1.2 nM	1.7	4110 nM	6.5 ± 0.5 nM	4320 nM				
CCCOc1cccc(C2N=C(N)N=C(N)N2c2cccc(/C=C/c3ccc(Cl)cc3Cl)c2)c1 (centres unmarked) [(Id2) R2=3-propyloxyphenyl]	19.2 ± 2.7 nM	14.8	25400 nM	1.3 ± 0.3 nM	5410 nM				
CCN(CC)CCCC(C)Nc1ccnc2cc(Cl)ccc12 (centres unmarked) [Chloroquine, reference compound]									Mean % infected RBC (Plasmodium berghei; 10 mg/kg daily x4): 3.58%
NC1=NC(c2cccc(OCc3ccccc3)c2)N(c2ccc(OCc3ccccc3)cc2)C(N)=N1 (centres unmarked) [R2=3-BnOC6H4, X=BnO, Y=H, 1-p-benzyloxyphenyl-2-m-benzyloxyphenyl-4,6-diamino-1,2-dihydro-1,3,5-triazine]	5.7 ± 0.6 nM	4.4		1.3 ± 0.2 nM	255 nM				Ki [6, 13]: 40 nM; Selectivity [6]: 8.0; IC50 [3]: 3450 nM; Ki (human DHFR [7]; read-out: Human Ki (I50)): 319 nM; Ki (human)/Ki (P. falc. mut) (human DHFR [8]): 56; Ki (human)/Ki (P. falc. wt) (human DHFR [8]): 245; Ki (human)/Ki (T. cruzi) (human DHFR [8]): 8.0
NC1=NC(c2ccc(Oc3ccc(C(F)(F)F)cc3)cc2)N(c2cccc(Cl)c2)C(N)=N1 (centres unmarked) [R2=4-(4-CF3PhO)C6H4, X=H, Y=Cl]									Mean % infected RBC (Plasmodium berghei; 24 mg/kg daily x4): 4.4%
CCCCOc1ccc(C2N=C(N)N=C(N)N2c2cccc(Cl)c2)cc1 (centres unmarked) [R2=4-nBuOC6H4, X=H, Y=Cl]									Mean % infected RBC (Plasmodium berghei; 25 mg/kg daily x4): 16.46%; Pf-FCR3 ED50 ([9]; in vitro, FCR3 strain): 0.0038 µg/mL; Pf-3D7 ED50 [10]: 0.3 µg/mL
